The source made the active and inactive calls.
Key:
[1] = biological target: T1, Sentrin-specific protease 6 (Homo sapiens, UniProt Q9GZR1); type: functional;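 note: Luminescence-based dose-response confirmatory assay of SENP6 inhibition, following up an ultra-high-throughput screen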
T1 sequence (Q9GZR1 whole entry): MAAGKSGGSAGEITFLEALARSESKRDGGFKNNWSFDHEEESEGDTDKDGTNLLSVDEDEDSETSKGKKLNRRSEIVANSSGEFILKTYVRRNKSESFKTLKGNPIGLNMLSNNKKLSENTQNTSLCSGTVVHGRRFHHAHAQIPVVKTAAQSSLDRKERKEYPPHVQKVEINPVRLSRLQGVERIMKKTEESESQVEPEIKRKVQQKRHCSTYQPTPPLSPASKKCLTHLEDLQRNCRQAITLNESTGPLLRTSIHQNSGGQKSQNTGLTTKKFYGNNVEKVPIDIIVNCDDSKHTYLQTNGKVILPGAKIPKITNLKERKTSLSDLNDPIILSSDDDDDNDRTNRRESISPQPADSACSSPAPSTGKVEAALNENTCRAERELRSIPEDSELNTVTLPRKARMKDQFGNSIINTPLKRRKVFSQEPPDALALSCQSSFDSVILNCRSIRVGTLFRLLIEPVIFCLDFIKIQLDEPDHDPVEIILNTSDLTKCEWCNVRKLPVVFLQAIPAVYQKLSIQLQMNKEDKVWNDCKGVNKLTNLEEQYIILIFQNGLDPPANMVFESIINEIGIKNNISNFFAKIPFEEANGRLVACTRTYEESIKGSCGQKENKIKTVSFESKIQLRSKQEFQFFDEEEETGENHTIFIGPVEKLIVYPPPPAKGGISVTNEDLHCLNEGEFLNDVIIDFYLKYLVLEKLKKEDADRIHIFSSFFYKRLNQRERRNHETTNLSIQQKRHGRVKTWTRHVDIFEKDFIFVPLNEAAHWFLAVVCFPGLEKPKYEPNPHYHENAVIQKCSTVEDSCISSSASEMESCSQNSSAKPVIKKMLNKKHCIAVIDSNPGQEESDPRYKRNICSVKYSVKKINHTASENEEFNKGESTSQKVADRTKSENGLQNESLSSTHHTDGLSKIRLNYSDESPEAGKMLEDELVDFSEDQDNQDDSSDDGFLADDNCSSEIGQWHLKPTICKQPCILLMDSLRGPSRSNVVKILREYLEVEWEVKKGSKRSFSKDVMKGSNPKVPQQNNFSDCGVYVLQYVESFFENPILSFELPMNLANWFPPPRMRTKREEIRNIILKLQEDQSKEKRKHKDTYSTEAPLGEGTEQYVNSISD

[2] = biological target: ATP-dependent molecular chaperone HSP82 (Candida albicans (strain WO-1) (Yeast), UniProt C4YTQ8); experiment: steroid-induced GRE reporter decrease in yeast – S. cerevisiae, luminescence, Hsp90 inhibitor project, dose response (AID 2400); type: functional, cell-based;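 note: beta-galactosidase luminescence from glucocorticoid response element reporter as proxy for Hsp90 function; inhibitor potency where signal loss means Hsp90 inhibition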
[3] = biological target: T2, Sentrin-specific protease 7 (Homo sapiens, UniProt Q9BQF6); type: functional;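 note: Luminescence-based dose-response confirmation of ultra-high-throughput screening hits, measuring inhibition of SENP7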
T2 sequence (Q9BQF6 whole entry): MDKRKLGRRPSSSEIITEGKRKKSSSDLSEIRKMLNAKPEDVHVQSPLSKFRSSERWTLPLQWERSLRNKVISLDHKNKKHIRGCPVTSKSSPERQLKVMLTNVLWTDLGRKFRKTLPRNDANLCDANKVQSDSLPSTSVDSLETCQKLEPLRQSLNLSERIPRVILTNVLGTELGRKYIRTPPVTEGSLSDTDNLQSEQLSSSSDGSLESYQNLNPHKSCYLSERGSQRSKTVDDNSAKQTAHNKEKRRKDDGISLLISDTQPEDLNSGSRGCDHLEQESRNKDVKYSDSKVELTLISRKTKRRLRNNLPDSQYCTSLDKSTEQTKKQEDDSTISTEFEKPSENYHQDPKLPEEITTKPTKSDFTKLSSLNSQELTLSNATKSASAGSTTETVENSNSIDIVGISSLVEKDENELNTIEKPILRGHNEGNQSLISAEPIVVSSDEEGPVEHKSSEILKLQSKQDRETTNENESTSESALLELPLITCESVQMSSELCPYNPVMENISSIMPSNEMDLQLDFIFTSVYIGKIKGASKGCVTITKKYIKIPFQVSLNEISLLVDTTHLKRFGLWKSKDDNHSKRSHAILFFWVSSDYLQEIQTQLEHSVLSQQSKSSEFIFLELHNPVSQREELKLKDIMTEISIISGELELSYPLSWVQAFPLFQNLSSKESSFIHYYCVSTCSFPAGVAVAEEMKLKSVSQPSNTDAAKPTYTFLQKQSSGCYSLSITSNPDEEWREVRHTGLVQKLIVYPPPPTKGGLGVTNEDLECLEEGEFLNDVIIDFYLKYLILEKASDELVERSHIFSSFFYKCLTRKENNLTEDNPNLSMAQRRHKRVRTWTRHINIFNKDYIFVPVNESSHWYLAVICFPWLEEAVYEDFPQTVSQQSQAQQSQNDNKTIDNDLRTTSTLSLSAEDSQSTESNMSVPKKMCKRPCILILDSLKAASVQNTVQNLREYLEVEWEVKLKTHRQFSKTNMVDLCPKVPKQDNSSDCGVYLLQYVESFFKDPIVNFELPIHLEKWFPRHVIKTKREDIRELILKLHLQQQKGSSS

[4] = biological target: T3, Serine/threonine-protein phosphatase (Candida dubliniensis (strain CD36 / CBS 7987 / NCPF 3949 / NRRLY-17841) (Yeast), UniProt B9W6M3); experiment: blockers of CaCl2-induced CDRE-lacZ signaling – S. cerevisiae, luminescence, secondary, dose response (AID 2388); type: functional, cell-based;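 note: yeast reporter cells carrying a calcineurin-responsive lacZ construct stimulated with calcium chloride; luminescent beta-galactosidase reporter signal in whole cells rather than isolated phosphatase activity; potency for inhibition where a drop in reporter signal means calcineurin blockade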
T3 sequence (B9W6M3 whole entry): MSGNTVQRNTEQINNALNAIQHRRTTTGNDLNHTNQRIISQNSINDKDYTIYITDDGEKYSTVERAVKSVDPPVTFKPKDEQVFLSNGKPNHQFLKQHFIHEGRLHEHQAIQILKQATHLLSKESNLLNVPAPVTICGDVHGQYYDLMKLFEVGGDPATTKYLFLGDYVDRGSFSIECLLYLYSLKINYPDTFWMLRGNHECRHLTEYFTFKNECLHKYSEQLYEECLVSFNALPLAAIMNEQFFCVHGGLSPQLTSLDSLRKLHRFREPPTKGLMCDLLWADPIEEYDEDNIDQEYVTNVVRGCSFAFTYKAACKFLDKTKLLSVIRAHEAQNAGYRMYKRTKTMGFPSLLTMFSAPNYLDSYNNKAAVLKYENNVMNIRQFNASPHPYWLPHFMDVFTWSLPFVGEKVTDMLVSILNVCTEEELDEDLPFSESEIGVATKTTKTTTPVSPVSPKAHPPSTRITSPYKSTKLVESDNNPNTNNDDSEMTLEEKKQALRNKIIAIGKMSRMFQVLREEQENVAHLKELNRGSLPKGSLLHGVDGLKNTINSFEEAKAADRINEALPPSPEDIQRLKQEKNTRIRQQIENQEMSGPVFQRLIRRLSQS

[5] = NIH-3T3 fibroblast cytotoxicity, dose response, cytotoxicity control, cell-based, fluorescence, Alamar Blue, secondary assay (AID 2327); type: functional;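 note: NIH-3T3 mouse fibroblasts cultured with fluconazole at 8 µg/mL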
[6] = biological target: Cyclin-dependent kinase 5/CDK5 activator 1 (Homo sapiens, UniProt Q00535); experiment: blockade of human CDK5 activity – biochemical, cherry-picked samples, set 2, dose response (AID 504545)
[7] = biological target: T4, Sentrin-specific protease 8 (Homo sapiens, UniProt Q96LD8); type: functional;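 note: luminescence read-out of SENP8 inhibition, dose-response confirmation following an ultra-high-throughput screen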
T4 sequence (Q96LD8 whole entry): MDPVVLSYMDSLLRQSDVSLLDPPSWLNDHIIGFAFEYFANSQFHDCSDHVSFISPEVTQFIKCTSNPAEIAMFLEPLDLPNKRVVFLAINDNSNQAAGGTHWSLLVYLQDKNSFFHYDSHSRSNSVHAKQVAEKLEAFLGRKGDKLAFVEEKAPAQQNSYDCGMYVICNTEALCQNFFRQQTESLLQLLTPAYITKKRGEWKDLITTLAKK

[8] = fluconazole-exposed Candida albicans growth modulators – fluorescence, retest, confirmation (AID 2467); type: functional, cell-based
Caspase-3 = biological target: T5, Caspase-3 (Homo sapiens, UniProt P42574); type: functional;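 note: Dose-response selectivity test against caspase-3 for candidate inhibitors of sentrin-specific proteases (SENPs)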
T5 sequence (P42574 whole entry): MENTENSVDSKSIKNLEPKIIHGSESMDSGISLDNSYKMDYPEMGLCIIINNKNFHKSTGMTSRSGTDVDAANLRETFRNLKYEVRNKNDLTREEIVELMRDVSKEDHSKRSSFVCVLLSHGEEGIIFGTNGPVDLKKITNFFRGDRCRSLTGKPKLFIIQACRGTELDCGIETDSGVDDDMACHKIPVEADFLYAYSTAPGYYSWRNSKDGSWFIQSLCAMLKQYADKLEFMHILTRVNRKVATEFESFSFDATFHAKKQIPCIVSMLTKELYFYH

[9] = biological target: G-protein coupled receptor 55 (Homo sapiens, UniProt Q9Y2T6); experiment: inhibition of LPI-stimulated GPR55 beta-arrestin translocation – imaging, U2OS, beta-arrestin-GFP, LPI agonist, primary screen (AID 2013); type: functional;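 note: antagonist potency measured as reduced agonist-driven arrestin aggregation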
[10] = tested on: Streptococcus sp. 'group A'; experiment: Streptococcus pyogenes SK(-)GAS viability under kanamycin – luminescence, BacTiterGlo, confirmation, counter-screen for streptokinase expression inhibitor project, dose response (AID 1900); type: functional, organism-based
HEK293 = experiment: EBV LMP1 TES2 canonical NF-kB signalling blockers – cell-based, HEK293, luciferase, cherry-pick, dose response (AID 588343); type: functional; conditions: Homo sapiens
Streptokinase A = biological target: T6, Streptokinase A (Streptococcus pyogenes serotype M1, UniProt P10520); experiment: viability-normalized secreted streptokinase activity reduction – plasminogen activation absorbance, OD405, dose response (AID 1914); type: functional, Streptococcus pyogenes M1 GAS;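 note: secreted streptokinase activity via plasminogen activation per viability signal from cell pellet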
T6 sequence (P10520 whole entry): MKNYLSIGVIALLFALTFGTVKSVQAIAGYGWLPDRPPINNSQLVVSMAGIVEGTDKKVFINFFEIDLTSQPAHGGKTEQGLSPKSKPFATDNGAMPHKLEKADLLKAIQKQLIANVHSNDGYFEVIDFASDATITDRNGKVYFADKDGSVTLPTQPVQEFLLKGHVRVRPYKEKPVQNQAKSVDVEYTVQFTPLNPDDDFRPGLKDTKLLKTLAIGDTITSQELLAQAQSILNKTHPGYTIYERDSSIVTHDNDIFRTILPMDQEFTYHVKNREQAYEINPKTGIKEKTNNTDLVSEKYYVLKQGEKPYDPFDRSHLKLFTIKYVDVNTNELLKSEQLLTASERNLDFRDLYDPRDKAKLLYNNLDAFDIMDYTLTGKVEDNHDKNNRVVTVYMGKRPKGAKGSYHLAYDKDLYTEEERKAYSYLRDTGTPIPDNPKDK

Streptococcus = experiment: GAS UMAA2166 growth inhibition – luminescence, BacTiterGlo, counter-screen for streptokinase expression inhibitor project, dose response (AID 1915); type: functional, organism-based;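 note: potency for reduction of bacterial viability or growth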
[11] = blockade of melanocortin 4 receptor signaling – cell-based, plate reader, cherry pick, counter-screen for LGR2 antagonist project, dose response (AID 743444); type: functional;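 note: transfected HEK 293 cells stimulated with alpha-MSH peptide; potency of inhibitors of the alpha-MSH evoked signal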
[12] = blockers of bursicon-stimulated LGR2 cAMP reporter – cell-based, HEK293, CRE-luciferase reporter, cherry pick, set 2, dose response (AID 743343); type: functional;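 note: transfected cells were stimulated with diluted bursicon conditioned medium after compound addition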
Vero = experiment: viability of Vero cells under compound – cytotoxicity control for flavivirus capping enzyme inhibitors (AID 588742); type: functional; conditions: Chlorocebus sabaeus

Cyclin-dependent kinase 5/CDK5 activator 1, sequence (Q00535 whole entry): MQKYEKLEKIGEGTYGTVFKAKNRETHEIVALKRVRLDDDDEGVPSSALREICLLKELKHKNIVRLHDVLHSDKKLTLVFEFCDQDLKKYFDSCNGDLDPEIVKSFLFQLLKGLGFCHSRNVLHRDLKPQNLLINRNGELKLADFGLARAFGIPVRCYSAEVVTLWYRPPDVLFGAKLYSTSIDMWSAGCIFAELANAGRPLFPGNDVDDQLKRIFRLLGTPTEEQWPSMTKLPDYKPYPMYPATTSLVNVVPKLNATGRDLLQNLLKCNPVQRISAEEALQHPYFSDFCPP
Cyclin-dependent kinase 5/CDK5 activator 1, sequence (Q15078 whole entry, further chain): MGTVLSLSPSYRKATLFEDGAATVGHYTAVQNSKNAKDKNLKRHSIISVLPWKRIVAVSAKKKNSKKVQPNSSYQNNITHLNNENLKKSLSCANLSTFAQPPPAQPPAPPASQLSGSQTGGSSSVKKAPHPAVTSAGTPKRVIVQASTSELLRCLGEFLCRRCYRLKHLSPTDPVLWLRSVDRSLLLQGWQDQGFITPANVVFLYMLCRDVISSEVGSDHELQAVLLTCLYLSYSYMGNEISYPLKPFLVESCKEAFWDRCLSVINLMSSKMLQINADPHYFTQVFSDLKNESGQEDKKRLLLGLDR
G-protein coupled receptor 55, sequence (Q9Y2T6 whole entry): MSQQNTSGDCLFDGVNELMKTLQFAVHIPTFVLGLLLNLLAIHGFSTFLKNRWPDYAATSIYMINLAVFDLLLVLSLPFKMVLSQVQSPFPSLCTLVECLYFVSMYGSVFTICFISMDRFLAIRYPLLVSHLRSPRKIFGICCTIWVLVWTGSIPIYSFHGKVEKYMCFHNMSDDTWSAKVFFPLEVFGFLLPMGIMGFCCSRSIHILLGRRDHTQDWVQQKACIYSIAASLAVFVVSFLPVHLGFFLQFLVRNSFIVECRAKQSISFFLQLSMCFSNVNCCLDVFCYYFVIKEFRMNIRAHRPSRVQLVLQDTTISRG
ATP-dependent molecular chaperone HSP82, sequence (C4YTQ8 whole entry): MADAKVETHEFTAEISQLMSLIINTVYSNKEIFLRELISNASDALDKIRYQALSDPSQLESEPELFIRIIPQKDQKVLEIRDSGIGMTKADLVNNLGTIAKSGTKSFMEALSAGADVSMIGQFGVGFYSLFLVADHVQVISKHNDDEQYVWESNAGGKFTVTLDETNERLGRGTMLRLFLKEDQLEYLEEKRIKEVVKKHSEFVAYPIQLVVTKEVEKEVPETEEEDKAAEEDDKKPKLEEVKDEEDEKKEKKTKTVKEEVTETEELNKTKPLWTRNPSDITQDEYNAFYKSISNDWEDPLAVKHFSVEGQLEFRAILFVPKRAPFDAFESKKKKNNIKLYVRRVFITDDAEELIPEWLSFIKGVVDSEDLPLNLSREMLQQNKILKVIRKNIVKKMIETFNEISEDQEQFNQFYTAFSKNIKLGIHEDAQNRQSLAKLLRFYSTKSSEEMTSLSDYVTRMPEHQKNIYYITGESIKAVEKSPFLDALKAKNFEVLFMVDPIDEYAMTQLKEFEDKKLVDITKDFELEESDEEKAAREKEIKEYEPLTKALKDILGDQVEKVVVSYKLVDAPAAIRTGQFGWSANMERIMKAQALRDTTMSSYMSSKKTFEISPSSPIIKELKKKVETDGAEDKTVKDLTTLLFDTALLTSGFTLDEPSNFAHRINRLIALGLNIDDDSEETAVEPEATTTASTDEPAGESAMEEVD

Question: For `CCNc1nc(N)nc(-c2cc(Cl)ccc2O)n1`, which IC50 [1] is on record?
Answer: 12 µM (active)

Question: And the EC50 [2]?
Answer: 20.1 µM (active)

Question: And the IC50 [3]?
Answer: 3.99 µM (active)

Question: What about the EC50 [4] of the same compound?
Answer: > 180 µM (inactive)

Question: And the EC50 [5]?
Answer: 40.2 µM (active)

Question: And the AC50 [6]?
Answer: 7.06 µM (active)

Question: What about the IC50 [7] of the same compound?
Answer: 13.7 µM (active)

Question: What about the EC50 [8] of the same compound?
Answer: 0.53 µM (active)

Question: What about the IC50 (Caspase-3) of the same compound?
Answer: 18.9 µM (active)

Question: What does the source list for `COc1ccc(NC2=NCC(Cc3ccc(Br)cc3)S2)cc1` (stereo unspecified)?
Answer: IC50 [9]: 1.31 µM (active); EC50 [10]: 9.96 µM (active); AC50 (HEK293): 183 µM (active); EC50 (Streptokinase A): > 150 µM (not active); EC50 (Streptococcus): > 150 µM (not active)

Question: With `Cc1cnc(NC(=O)c2ccc(OCC3CCCO3)cc2)s1` (stereo unspecified) as the compound, how does the AC50 [11] read?
Answer: 5.51 µM (active)

Question: And the AC50 (HEK293)?
Answer: 1.93 µM (active)

Question: What about the AC50 [12] of the same compound?
Answer: 4.84 µM (active)

Question: Which AC50 [11] does the source give for `CCOC(=O)c1cn2nc(N3CCCCC3)ccc2n1` here?
Answer: 5.1 µM (active)

Question: What about the AC50 (HEK293) of the same compound?
Answer: 2.8 µM (active)

Question: And the AC50 [12]?
Answer: 2.62 µM (active)

Question: With `O=C1C(=Cc2ccccc2[N+](=O)[O-])Cc2ccccc21` as the compound, how does the CC50 (Vero) read?
Answer: 20.9 µM (active)

— ChEMBL document CHEMBL1201862, “PubChem BioAssay data set” (2004)
